From ChEMBL document CHEMBL2010748, “Structure-Activity Relationship Studies of HIV-1 Integrase Oligonucleotide Inhibitors” (ACS Med Chem Lett, 2011)

Target: Human immunodeficiency virus type 1 integrase (Human immunodeficiency virus 1, UniProt Q7ZJM1)
Assay: Inhibition of Human immunodeficiency virus 1 integrase 3'-processing activity expressed in Escherichia coli using 21-mer DNA and Mg2+ after 2 hrs by polyacrylamide gel electrophoresis

Human immunodeficiency virus type 1 integrase, sequence (Q7ZJM1 whole entry): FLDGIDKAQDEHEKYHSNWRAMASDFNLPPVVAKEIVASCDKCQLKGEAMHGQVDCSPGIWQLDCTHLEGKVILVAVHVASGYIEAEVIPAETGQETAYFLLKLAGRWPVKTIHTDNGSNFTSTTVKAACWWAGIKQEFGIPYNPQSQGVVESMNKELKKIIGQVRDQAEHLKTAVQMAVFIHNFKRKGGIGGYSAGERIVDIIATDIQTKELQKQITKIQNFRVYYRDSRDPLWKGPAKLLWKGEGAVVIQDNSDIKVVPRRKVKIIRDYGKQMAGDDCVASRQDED

| IC50 [nM] | Structure (SMILES) |
| --- | --- |
| 20 | CCCCCCCC/C=C\CCCCCCCC(=O)NCCCOCC(O)COP(=O)(O)O[C@H]1C[C@H](n2cc(C)c(=O)[nH]c2=O)O[C@@H]1COP(=O)(O)O[C@H]1C[C@H](n2cnc3c(=O)[nH]c(N)nc32)O[C@@H]1COP(=O)(O)O[C@H]1C[C@H](n2cc(C)c(=O)[nH]c2=O)O[C@@H]1COP(=O)(O)O[C@H]1C[C@H](n2cnc3c(=O)[nH]c(N)nc32)O[C@@H]1COP(=O)(O)O[C@H]1C[C@H](n2cc(C)c(=O)[nH]c2=O)O[C@@H]1COP(=O)(O)O[C@H]1C[C@H](n2cc(C)c(=O)[nH]c2=O)O[C@@H]1COP(=O)(O)O[C@H]1C[C@H](n2cc(C)c(=O)[nH]c2=O)O[C@@H]1COP(=O)(O)O[C@H]1C[C@H](n2cc(C)c(=O)[nH]c2=O)O[C@@H]1COP(=O)(O)O[C@H]1C[C@H](n2cc(C)c(=O)[nH]c2=O)O[C@@H]1COP(=O)(O)O[C@H]1C[C@H](n2cnc3c(=O)[nH]c(N)nc32)O[C@@H]1COP(=O)(O)O[C@H]1C[C@H](n2cnc3c(=O)[nH]c(N)nc32)O[C@@H]1COP(=O)(O)O[C@@H]1C[C@@H](CO)N(C(=O)CCCCCNC(=O)c2ccc(C(=O)O)c(-c3c4ccc(=O)cc-4oc4cc(O)ccc34)c2)C1 (stereo partly drawn) |
| 23 | CCCCCCCC/C=C\CCCCCCCC(=O)NCCCOCC(O)COP(=O)(O)O[C@@H]1C[C@@H](COP(=O)(O)O[C@H]2C[C@H](n3cc(C)c(=O)[nH]c3=O)O[C@@H]2COP(=O)(O)O[C@H]2C[C@H](n3cnc4c(=O)[nH]c(N)nc43)O[C@@H]2COP(=O)(O)O[C@H]2C[C@H](n3cc(C)c(=O)[nH]c3=O)O[C@@H]2COP(=O)(O)O[C@H]2C[C@H](n3cnc4c(=O)[nH]c(N)nc43)O[C@@H]2COP(=O)(O)O[C@H]2C[C@H](n3cc(C)c(=O)[nH]c3=O)O[C@@H]2COP(=O)(O)O[C@H]2C[C@H](n3cc(C)c(=O)[nH]c3=O)O[C@@H]2COP(=O)(O)O[C@H]2C[C@H](n3cc(C)c(=O)[nH]c3=O)O[C@@H]2COP(=O)(O)O[C@H]2C[C@H](n3cc(C)c(=O)[nH]c3=O)O[C@@H]2COP(=O)(O)O[C@H]2C[C@H](n3cc(C)c(=O)[nH]c3=O)O[C@@H]2COP(=O)(O)O[C@H]2C[C@H](n3cnc4c(=O)[nH]c(N)nc43)O[C@@H]2COP(=O)(O)O[C@H]2C[C@H](n3cnc4c(=O)[nH]c(N)nc43)O[C@@H]2CO)N(C(=O)CCCCCNC(=O)c2ccc(C(=O)O)c(-c3c4ccc(=O)cc-4oc4cc(O)ccc34)c2)C1 (stereo partly drawn) |
| 18 | Cc1cn([C@H]2C[C@H](OP(=O)(S)OC[C@H]3O[C@@H](n4cc(C)c(=O)[nH]c4=O)C[C@@H]3OP(=O)(S)OC[C@H]3O[C@@H](n4cc(C)c(=O)[nH]c4=O)C[C@@H]3OP(=O)(S)OC[C@H]3O[C@@H](n4cnc5c(=O)[nH]c(N)nc54)C[C@@H]3OP(=O)(S)OC[C@H]3O[C@@H](n4cc(C)c(=O)[nH]c4=O)C[C@@H]3OP(=O)(S)OC[C@H]3O[C@@H](n4cnc5c(=O)[nH]c(N)nc54)C[C@@H]3OP(=O)(S)OC[C@H]3O[C@@H](n4cc(C)c(=O)[nH]c4=O)C[C@@H]3OP(=O)(S)OCCCCCCNC(=S)Nc3ccc(-c4c5cc(Br)c(=O)c(Br)c-5oc5c(Br)c(O)c(Br)cc45)c(C(=O)O)c3)[C@@H](COP(=O)(S)O[C@H]3C[C@H](n4cc(C)c(=O)[nH]c4=O)O[C@@H]3COP(=O)(S)O[C@H]3C[C@H](n4cc(C)c(=O)[nH]c4=O)O[C@@H]3COP(=O)(S)O[C@H]3C[C@H](n4cnc5c(=O)[nH]c(N)nc54)O[C@@H]3COP(=O)(S)O[C@H]3C[C@H](n4cnc5c(=O)[nH]c(N)nc54)O[C@@H]3CO)O2)c(=O)[nH]c1=O (stereo partly drawn) |
